Assay results reported in patent publication US6716863B2, “Heterocyclic compounds their production and use” (Takeda Chemical Industries, Ltd., priority 2000, dated 2004).

melting point | SMILES
154 to 155 °C | Cc1ccc(/C=C/c2nc(COc3ccc(CCCCn4ccnn4)cc3)co2)cc1 [Example 1]
124 to 125 °C | Fc1ccc(/C=C/c2nc(COc3ccc(CCCCn4ccnn4)cc3)co2)cc1 [Example 2, 1-{4-[4-({2-[(E)-2-(4-fluorophenyl)ethenyl]-1,3-oxazol-4-yl}methoxy)phenyl]butyl}-1H-1,2,3-triazole]
105 to 106 °C | Fc1ccc(/C=C/c2nc(COc3cccc(CCCn4ccnn4)c3)co2)cc1 [Example 3, 1-{3-[3-({2-[(E)-2-(4-fluorophenyl)ethenyl]-1,3-oxazol-4-yl}methoxy)phenyl]propyl}-1H-1,2,3-triazole]
157 to 158 °C | FC(F)(F)c1ccc(/C=C/c2nc(COc3ccc(CCCn4ccnn4)cc3)co2)cc1 [Example 5, 1-(3-{4-[(2-((E)-2-[4-(trifluoromethyl)phenyl]ethenyl)-1,3-oxazol-4-yl)methoxy]phenyl}propyl)-1H-1,2,3-triazole]
115 to 116 °C | FC(F)(F)c1ccc(/C=C/c2nc(COc3cccc(CCCn4ccnn4)c3)co2)cc1 [Example 6, 1-(3-{3-[(2-((E)-2-[4-(trifluoromethyl)phenyl]ethenyl}-1,3-oxazol-4-yl)methoxy]phenyl}propyl)-1H-1,2,3-triazole]
115 to 117 °C | Fc1ccc(/C=C/c2nc(COc3ccc(CCCCn4ccnn4)cc3)co2)c(F)c1 [Example 7, 1-{4-[4-({2-[(E)-2-(2,4-difluorophenyl)ethenyl]-1,3-oxazol-4-yl}methoxy)phenyl]butyl}-1H-1,2,3-triazole]
89 to 90 °C | Fc1ccc(/C=C/c2nc(COc3cccc(CCCn4ccnn4)c3)co2)c(F)c1 [Example 8, 1-{3-[3-({2-[(E)-2-(2,4-difluorophenyl)ethenyl]-1,3-oxazol-4-yl}methoxy)phenyl]propyl}-1H-1,2,3-triazole]
130 to 132 °C | OCCc1nccn1CCCCc1ccc(OCc2coc(/C=C/c3ccc(F)cc3)n2)cc1 [Example 14, 2-(1-(4-[4-({2-[(E)-2-(4-fluorophenyl)ethenyl]-1,3-oxazol-4-yl}methoxy)phenyl]butyl)-1H-imidazol-2-yl)-1-ethanol]
114 to 116 °C | OCC(O)Cc1nccn1CCCCc1ccc(OCc2coc(/C=C/c3ccc(F)cc3)n2)cc1 (stereo not shown) [Example 23, 3-(1-{4-[4-({2-[(E)-2-(4-fluorophenyl)ethenyl]-1,3-oxazol-4-yl}methoxy)phenyl]butyl}-1H-imidazol-2-yl)-1,2-propanediol]
102 to 104 °C | OCC(O)Cc1nccn1CCCc1cccc(OCc2coc(/C=C/c3ccc(C(F)(F)F)cc3)n2)c1 (stereo not shown) [Example 25, 3-[1-(3-{3-[(2-{(E)-2-[4-(trifluoromethyl)phenyl]ethenyl}-1,3-oxazol-4-yl)methoxy]phenyl}propyl)-1H-imidazol-2-yl]-1,2-propanediol]

Further lines, the compound ahead of its results:

SMILES | melting point
Cc1ccc(/C=C/c2nc(COc3ccc(CCCCn4ccnc4CCO)cc3)co2)cc1 [Example 10, 2-[1-[4-[4-[[2-[(E)-2-(4-methylphenyl)ethenyl]-1,3-oxazol-4-yl]methoxy]phenyl]butyl]-1H-imidazol-2-yl]-1-ethanol] | 108 to 109 °C
Cc1cccc(/C=C/c2nc(COc3ccc(CCCCn4ccnc4CCO)cc3)co2)c1 [Example 11, 2-[1-[4-[4-[[2-[(E)-2-(3-methylphenyl)ethenyl]-1,3-oxazol-4-yl]methoxy]phenyl]butyl]-1H-imidazol-2-yl]-1-ethanol] | 109 to 111 °C
Cc1ccccc1/C=C/c1nc(COc2ccc(CCCCn3ccnc3CCO)cc2)co1 [Example 12, 2-[1-[4-[4-[[2-[(E)-2-(2-methylphenyl)ethenyl]-1,3-oxazol-4-yl]methoxy]phenyl]butyl]-1H-imidazol-2-yl]-1-ethanol] | 91 to 93 °C
CCc1ccc(/C=C/c2nc(COc3ccc(CCCCn4ccnc4CCO)cc3)co2)cc1 [Example 13, 2-[1-[4-[4-[[2-[(E)-2-(4-ethylphenyl)ethenyl]-1,3-oxazol-4-yl]methoxy]phenyl]butyl]-1H-imidazol-2-yl]-1-ethanol] | 94 to 95 °C
OCCc1nccn1CCCCc1ccc(OCc2coc(/C=C/c3ccc(Cl)cc3)n2)cc1 [Example 15, 2-[1-[4-[4-[[2-[(E)-2-(4-chlorophenyl)ethenyl]-1,3-oxazol-4-yl]methoxy]phenyl]butyl]-1H-imidazol-2-yl]-1-ethanol] | 127 to 128 °C
OCCc1nccn1CCCCc1ccc(OCc2coc(/C=C/c3ccc(Br)cc3)n2)cc1 [Example 16, 2-[1-[4-[4-[[2-[(E)-2-(4-bromophenyl)ethenyl]-1,3-oxazol-4-yl]methoxy]phenyl]butyl]-1H-imidazol-2-yl]-1-ethanol] | 149 to 150 °C
OCCc1nccn1CCCCc1ccc(OCc2coc(/C=C/c3ccc(F)cc3F)n2)cc1 [Example 19, 2-[1-[4-[4-[[2-[(E)-2-(2,4-difluorophenyl)ethenyl]-1,3-oxazol-4-yl]methoxy]phenyl]butyl]-1H-imidazol-2-yl]-1-ethanol] | 93 to 95 °C
OCCc1nccn1CCCc1ccc(OCc2coc(/C=C/c3ccc(F)cc3F)n2)cc1 [Example 20, 2-[1-[3-[4-[[2-[(E)-2-(2,4-difluorophenyl)ethenyl]-1,3-oxazol-4-yl]methoxy]phenyl]propyl]-1H-imidazol-2-yl]-1-ethanol] | 94 to 96 °C
OCCc1nccn1CCCCc1ccc(OCc2coc(/C=C/c3c(F)cccc3F)n2)cc1 [Example 21] | 106 to 107 °C
Cc1cccc(/C=C/c2nc(COc3ccc(CCCCn4ccnc4CC(O)CO)cc3)co2)c1 (stereo not shown) [Example 22, 3-(1-{4-[4-({2-[(E)-2-(3-methylphenyl)ethenyl]-1,3-oxazol-4-yl}methoxy)phenyl]butyl}-1H-imidazol-2-yl)-1,2-propanediol] | 102 to 104 °C
OCC(O)Cc1nccn1CCCCc1ccc(OCc2coc(/C=C/c3ccc(C(F)(F)F)cc3)n2)cc1 (stereo not shown) [Example 24, 3-[1-(4-(4-[(2-{(E)-2-[4-(trifluoromethyl)phenyl]ethenyl}-1,3-oxazol-4-yl)methoxy]phenyl}butyl)-1H-imidazol-2-yl]-1,2-propanediol] | 142 to 143 °C
OCC(O)Cc1nccn1CCCCc1ccc(OCc2coc(/C=C/c3ccc(F)cc3F)n2)cc1 (stereo not shown) [Example 26, 3-(1-{4-[4-({2-[(E)-2-(2,4-difluorophenyl)ethenyl]-1,3-oxazol-4-yl]methoxy)phenyl]butyl}-1H-imidazol-2-yl)-1,2-propanediol] | 126 to 128 °C
OCC(O)Cc1nccn1CCCCc1ccc(OCc2coc(/C=C/c3c(F)cccc3F)n2)cc1 (stereo not shown) [Example 28, 3-[1-[4-[4-[[2-[(E)-2-(2,6-difluorophenyl)ethenyl]-1,3-oxazol-4-yl]methoxy]phenyl]butyl]-1H-imidazol-2-yl]-1,2-propanediol] | 123 to 125 °C
OC[C@H](O)Cc1nccn1CCCCc1ccc(OCc2coc(/C=C/c3ccc(F)cc3F)n2)cc1 [Example 29] | 104 to 106 °C
OC[C@@H](O)Cc1nccn1CCCCc1ccc(OCc2coc(/C=C/c3ccc(F)cc3F)n2)cc1 [Example 30] | 106 to 108 °C
